Measurements as given in patent US10745382B2 (BRISTOL-MYERS SQUIBB COMPANY, priority 2015, dated 2020).
Where two headings read alike, the source gives them in different places.

Target: T1, PD-1/PD-L1 (Homo sapiens, UniProt Q9NZQ7)
T1 construct: made in house; host or cells: HEK293T
Experiment: PD-1/PD-L1 Homogenous Time-Resolved Fluorescence (HTRF) binding assay
Conditions: PD-L1-His 10 nM, PD-1-Ig 20 nM, read-out: Range or IC50
Procedure, shortened: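 Binding was measured by HTRF in dPBS with 0.1% BSA and 0.05% Tween-20. Detection used europium cryptate anti-Ig (1 nM final) and APC anti-His (20 nM final) added over the binding reaction.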

T1 sequence (Q9NZQ7 with tags, fused parts or gaps): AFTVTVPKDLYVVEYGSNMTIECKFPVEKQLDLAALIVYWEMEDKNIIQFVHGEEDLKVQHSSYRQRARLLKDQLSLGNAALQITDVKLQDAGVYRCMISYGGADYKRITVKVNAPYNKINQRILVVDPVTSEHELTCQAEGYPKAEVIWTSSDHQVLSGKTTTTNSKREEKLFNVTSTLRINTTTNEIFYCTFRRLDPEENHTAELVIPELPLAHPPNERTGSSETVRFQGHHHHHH

IC50 (value given as range class) [nM] | IC50 (numeric IC50) [nM] | Structure (SMILES)
0.21 to 10 |  | Cc1c(CCCCN2CC[C@@H](O)C2)cccc1-c1cccc(COc2cc(OCc3cncc(C#N)c3)c(CNC(CO)CO)cc2Cl)c1C [Example 4064, (R)-5-((4-chloro-2-(((1,3-dihydroxypropan-2-yl)amino)methyl)-5-((3′-(4-(3-hydroxypyrrolidin-1-yl)butyl)-2,2′-dimethyl-[1,1′-biphenyl]-3-yl)methoxy)phenoxy)methyl)nicotinonitrile]
100 to 2000 |  | CNC(=O)c1cccc(-c2cccc(COc3cc(OCc4cc(F)cc(F)c4)c(CN4CCCC[C@H]4C(=O)O)cc3Cl)c2C)c1C [Example 4023, (S)-1-(5-chloro-2-((3,5-difluorobenzyl)oxy)-4-((2,2′-dimethyl-3′-(methylcarbamoyl)-[1,1′-biphenyl]-3-yl)methoxy)benzyl)piperidine-2-carboxylic Acid]
0.21 to 10 |  | Cc1c(COc2cc(OCc3cncc(C#N)c3)c(CN3CCCC[C@H]3C(=O)O)cc2Cl)cccc1-c1cccc(OCCCN2C3COCC2COC3)c1C [Example 3052, (S)-1-(4-((3′-(3-((1s,5s)-3,7-dioxa-9-azabicyclo[3.3.1]nonan-9-yl)propoxy)-2,2′-dimethyl-[1,1′-biphenyl]-3-yl)methoxy)-5-chloro-2-((5-cyanopyridin-3-yl)methoxy)benzyl)piperidine-2-carboxylic Acid]
0.21 to 10 |  | Cc1c(COc2cc(OCc3cncc(C#N)c3)c(CN3CCCC[C@H]3C(=O)O)cc2Cl)cccc1-c1cccc(OCC2(CN3CC[C@@H](O)C3)CC2)c1C [Example 2346, (S)-1-(5-chloro-2-((5-cyanopyridin-3-yl)methoxy)-4-((3′-((1-(((R)-3-hydroxypyrrolidin-1-yl)methyl)cyclopropyl)methoxy)-2,2′-dimethyl-[1,1′-biphenyl]-3-yl)methoxy)benzyl)piperidine-2-carboxylic Acid]
0.21 to 10 |  | Cc1c(COc2ccc(CN3CCCC[C@H]3C(=O)O)cc2Cl)cccc1-c1cccc(OCCCN2CC[C@@H](O)C2)c1C [Example 3072, (S)-1-(3-chloro-4-((3′-(3-((R)-3-hydroxypyrrolidin-1-yl)propoxy)-2,2′-dimethyl-[1,1′-biphenyl]-3-yl)methoxy)benzyl)piperidine-2-carboxylic Acid]
 | 3 | Cc1ccc(COc2cc(OCc3cccc(-c4cccc(OCCCN5CC[C@@H](O)C5)c4C)c3C)c(Cl)cc2CNC(C)(CO)CO)cc1C [Example 4506, (R)-2-((5-chloro-2-((3,4-dimethylbenzyl)oxy)-4-((3′-(3-(3-hydroxypyrrolidin-1-yl)propoxy)-2,2′-dimethyl-[1,1′-biphenyl]-3-yl)methoxy)benzyl)amino)-2-methylpropane-1,3-diol]

More lines, now with the values behind:

Structure (SMILES) | IC50 (value given as range class) [nM] | IC50 (numeric IC50) [nM]
CC(=O)N[C@H]1CCN(CCCOc2cccc(-c3cccc(COc4cc(OCc5cncc(C#N)c5)c(CNC(CO)CO)cc4Cl)c3C)c2Cl)C1 [Example 2069, (S)—N-(1-(3-((2-chloro-3′-((2-chloro-5-((5-cyanopyridin-3-yl)methoxy)-4-(((1,3-dihydroxypropan-2-yl)amino)methyl)phenoxy)methyl)-2′-methyl-[1,1′-biphenyl]-3-yl)oxy)propyl)pyrrolidin-3-yl)acetamide] | 0.21 to 10 | 
CCN(CCCOc1cccc(-c2cccc(COc3cc(OCc4cncc(C#N)c4)c(CN(CC)C[C@H](O)CO)cc3Cl)c2C)c1Cl)C[C@H](O)CO [Example 2075, 5-((4-chloro-5-((2′-chloro-3′-(3-(((S)-2,3-dihydroxypropyl)(ethyl)amino)propoxy)-2-methyl-[1,1′-biphenyl]-3-yl)methoxy)-2-((((S)-2,3-dihydroxypropyl)(ethyl)amino)methyl)phenoxy)methyl)nicotinonitrile] |  | 5
Cc1c(COc2cc(OCc3cncc(C#N)c3)c(CN3CC[C@@H](O)C3)cc2Cl)cccc1-c1cccc(OCCCN2CC[C@@H](O)C2)c1Cl [Example 2001, 5-((4-chloro-5-((2′-chloro-3′-(3-((R)-3-hydroxypyrrolidin-1-yl)propoxy)-2-methyl-[1,1′-biphenyl]-3-yl)methoxy)-2-(((R)-3-hydroxypyrrolidin-1-yl)methyl)phenoxy)methyl)nicotinonitrile] | 0.21 to 10 | 
CC(C)=CCOc1cc(OCc2cccc(-c3cccc(OCCCN4CC[C@@H](O)C4)c3C)c2Cl)c(Cl)cc1CNC(CO)CO [Example 2321, (R)-2-((5-chloro-4-((2-chloro-3′-(3-(3-hydroxypyrrolidin-1-yl)propoxy)-2′-methyl-[1,1′-biphenyl]-3-yl)methoxy)-2-((3-methylbut-2-en-1-yl)oxy)benzyl)amino)propane-1,3-diol] | 0.21 to 10 | 
Cc1c(COc2cc(OCc3cncc(C#N)c3)c(CNC(CO)CO)cc2Cl)cccc1-c1cccc(OCCCN(C)C[C@H](O)CO)c1Cl [Example 2050, (S)-5-((4-chloro-5-((2′-chloro-3′-(3-((2,3-dihydroxypropyl)(methyl)amino)propoxy)-2-methyl-[1,1′-biphenyl]-3-yl)methoxy)-2-(((1,3-dihydroxypropan-2-yl)amino)methyl)phenoxy)methyl)nicotinonitrile] | 0.21 to 10 | 
CC(=O)NC1CCN(CCCOc2cccc(-c3cccc(COc4cc(OCc5cncc(C#N)c5)c(CN[C@](C)(CO)C(=O)O)cc4Cl)c3C)c2Cl)CC1 [Example 1079, (R)-2-((4-((3′-(3-(4-acetamidopiperidin-1-yl)propoxy)-2′-chloro-2-methyl-[1,1′-biphenyl]-3-yl)methoxy)-5-chloro-2-((5-cyanopyridin-3-yl)methoxy)benzyl)amino)-3-hydroxy-2-methylpropanoic Acid] | 0.21 to 10 | 
Cc1c(COc2cc(OCc3cncc(C#N)c3)c(CN[C@](C)(CO)C(=O)O)cc2Cl)cccc1-c1cccc(OCCCN2CCC(O)(C(=O)O)C2)c1C (stereo partly drawn) [Example 1054, 1-(3-((3′-((4-((((R)-2-carboxy-1-hydroxypropan-2-yl)amino)methyl)-2-chloro-5-((5-cyanopyridin-3-yl)methoxy)phenoxy)methyl)-2,2′-dimethyl-[1,1′-biphenyl]-3-yl)oxy)propyl)-3-hydroxypyrrolidine-3-carboxylic Acid] | 0.21 to 10 | 
Cc1c(COc2cc(OCc3cncc(C#N)c3)c(CN3CC[C@H](O)C3)cc2Cl)cccc1-c1ccc2c(c1)OC(CCN1CC[C@H](O)C1)CO2 (mixture of isomers) [Example 1501, 5-((4-chloro-5-((3-(3-(2-((S)-3-hydroxypyrrolidin-1-yl)ethyl)-2,3-dihydrobenzo[b][1,4]dioxin-6-yl)-2-methylbenzyl)oxy)-2-(((S)-3-hydroxypyrrolidin-1-yl)methyl)phenoxy)methyl)nicotinonitrile] | 0.21 to 10 | 
Cc1c(COc2cc(OCc3cncc(C#N)c3)c(CN[C@H](CO)C(=O)O)cc2Cl)cccc1-c1cccc(OCCCN2CC(O)C2)c1C [Example 1080, (R)-2-((5-chloro-2-((5-cyanopyridin-3-yl)methoxy)-4-((3′-(3-(3-hydroxyazetidin-1-yl)propoxy)-2,2′-dimethyl-[1,1′-biphenyl]-3-yl)methoxy)benzyl)amino)-3-hydroxypropanoic Acid] | 0.21 to 10 | 
Cc1c(COc2cc(OCc3cncc(C#N)c3)c(CN[C@@](C)(CO)C(=O)O)cc2Cl)cccc1-c1cccc(OCCCN2CCN(C)C(=O)C2)c1C [Example 2328, (S)-2-((5-chloro-2-((5-cyanopyridin-3-yl)methoxy)-4-((2,2′-dimethyl-3′-(3-(4-methyl-3-oxopiperazin-1-yl)propoxy)-[1,1′-biphenyl]-3-yl)methoxy)benzyl)amino)-3-hydroxy-2-methylpropanoic Acid] | 0.21 to 10 | 
